# Laboratory results as given in US11033559B2, “Leukocyte infiltration promoting agent and antitumor immunostimulatory agent” (OSAKA UNIVERSITY, priority 2015, dated 2021).
# Key:
# Assay type in all cases: in vivo
# [1] = system: tumor blood vessels in Lewis lung cancer (LLC) tumor-bearing mice; assay: Structural changes in tumor blood vessels (anti-CD31 immunostaining) after administration of LPA or LPA derivative; settings: 3 mg/kg intraperitoneally once daily for five days, tumors harvested at 6 days, anti-CD31 staining
# Procedure: LPA or an LPA derivative was administered to tumor-bearing mice generated by subcutaneous inoculation of a mouse cancer cell line, and post-administration structural changes in tumor blood vessels were examined.
# Lewis lung cancer cells (hereinafter called LLC cells) were used as the mouse cancer cell line. LLC cells (1×10^6 cells in 100 μL PBS per animal) were subcutaneously injected into C57BL/6 NCrSlc mice aged 8 weeks (females, SLC, Inc.).
# The LPA used was 18:1 LPA (Avanti Polar Lipids, Inc.). The LPA derivative used was VPC31144S (N-{(1S)-2-hydroxy-1-[(phosphonooxy)methyl]ethyl} (9Z) octade c-9-enamide). A 10 mM LPA stock solution and a 10 mM VPC31144S stock solution were separately prepared using 50% ethanol and stored at −30° C. Before use, each of the frozen stock solutions was thawed and homogenized with an ultrasonic cleaner (SND Co., Ltd.) for 1 minute. The solution was diluted in PBS to an appropriate concentration for administration at a dose of 3 mg/kg in 100 μL PBS.
# On day 9 post-inoculation, LLC-bearing mice that had developed a tumor with a volume of 60 to 80 mm^3 (volume=length×width×height×0.5) were selected and subjected to the experiment. The mice were assigned to three groups: a control group, an LPA group and a VPC31144S group. Each group consisted of three mice. […]
# LLC tumor in mice = assay: Changes in localization of immune cells in tumor (CD31, CD4, CD8 immunostaining); settings: tumor sections of Reference Example 1, LLC-bearing mice, 3 mg/kg i.p. for five days
# Procedure: LPA was administered to tumor-bearing mice generated by subcutaneous inoculation of a mouse cancer cell line, and changes in the localization of immune cells in the tumor were examined.
# The tumor sections prepared in Reference Example 1 were immunostained with an anti-CD4 antibody and an anti-CD8 antibody. As a primary antibody, Purified Hamster Anti-PECAM-1 Antibody (Millipore), which is an anti-mouse CD31 antibody, PE-labeled Anti-mouse CD4 Antibody (Pharmingen) or FITC-labeled Anti-mouse CD8 Antibody (Pharmingen) was used. As a secondary antibody, Alexa Fluor 647-conjugated Anti-Armenian Hamster IgG was used. The immunostaining was performed in the same procedure as in Reference Example 1. The immunostained sections were observed and photographed under a confocal laser microscope (Leica).
# LLC cells = assay: Tumor growth inhibition, subcutaneous tumor formed from LLC cells; settings: LLC-bearing mice; LPA 3 mg/kg i.p. once daily for seven days; 5-FU 100 mg/kg i.p. once weekly, 2 times
# Procedure: (§1) LLC cells (1×10^6 cells in 100 μL PBS per animal) were subcutaneously injected into C57BL/6 NCrSlc mice aged 8 weeks (females) in the same manner as in Reference Example 1. An LPA solution for administration was prepared in the same manner as in Reference Example 1. 5-FU (Kyowa Hakko Kirin Co., Ltd.) was used as an anticancer drug. 5-FU was prepared as a solution in physiological saline (Otsuka Pharmaceutical Co., Ltd.). On day 7 post-inoculation, LLC-bearing mice that had developed a tumor with a volume of 30 to 50 mm^3 were selected and subjected to the experiment. The mice were assigned to three groups: a control group, a 5-FU group and an LPA group (n=3 per group). After grouping, LPA (3 mg/kg/100 μL), 5-FU (100 mg/kg/100 μL) or PBS (100 μL) was intraperitoneally administered to the mice. The administration of LPA or PBS was performed once daily for consecutive seven days. The administration of 5-FU was performed once weekly, 2 times in total (day 7 and day 14 post-inoculation). Tumor size was measured over time after the start of the administration. Tumor volume was calculated by the following formula: length×width×height×0.5.
# [2] = system: B16-BL6 mouse melanoma cell line; assay: Tumor growth inhibition, subcutaneous tumor formed from melanoma cells; settings: B16-BL6-bearing mice; LPA 3 mg/kg i.p. once daily for seven days; 5-FU 100 mg/kg i.p. once weekly, 2 times
# Procedure: as §1
# The B16-BL6 mouse melanoma cell line was used. B16-BL6 cells (1×10^6 cells in […] PBS per animal) were subcutaneously injected into C57BL/6 NCrSlc mice aged 8 weeks (females). […]
substance,measurement,setting,value
lysophosphatidic acid [LPA],network structure of tumor blood vessels,[1],continuous network structure of blood vessels
same,continuity of tumor blood vessels (anti-CD31 staining),LLC tumor in mice,blood vessels were continuous
same,localization of CD4-positive cells in the tumor,LLC tumor in mice,CD4-positive cells were present even in the central part of the tumor
same,localization of CD8-positive cells in the tumor,LLC tumor in mice,CD8-positive cells were present in the whole tumor region
same,inhibition of tumor growth (tumor volume) versus control group,LLC cells,"albeit to a slightly lesser extent, the LPA group also showed inhibition of tumor growth"
same,inhibitory effect on growth of the tumor formed from melanoma cells,[2],comparable to that of 5-FU
